Assay [1] has as its target GDP-bound KRAS protein (aa 1-169), containing both G12D and C118A amino acid substitutions (Homo sapiens (Human), UniProt P01116, C118A/G12D). The assay can be described thus: KRAS G12D Coupled Nucleotide Exchange Assay. It is filed as biochemical.
The target of assay [2] is His-tagged KRAS G12D protein (Homo sapiens (Human), UniProt P01116, G12D). The assay can be described thus: KRAS G12D TR-FRET Assay. Type of assay: binding. In outline:
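His-tagged KRAS G12D (diluted to 20 nM in pH 7.4 HEPES buffer with 10 mM MgCl2 and 10 μM GDP) was preincubated with titrated compound for 30 min at room temperature. Biotinylated KRPep-2d peptide (diluted to 20 nM) was then added for 1 h, and displacement was monitored by TR-FRET.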
Background: Time-resolved FRET reads energy transfer from a long-lived donor to a nearby acceptor.

Assay [3] concerns Phosphorylation of ERK1/2 in AsPC-1 cells. The assay can be described thus: Phospho-ERK1/2 MSD Assay. It is filed as cell-based, human. In outline:
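Read-out: MSD electrochemiluminescent detection of phosphorylated ERK1/2 in whole-cell lysates, fitted to a 4-parameter logistic curve for IC50. Prior to lysis, AsPC-1 cells (25,000 per well) received a 2 h compound dose-response at 37 °C.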

In assay [4] the test system is AsPC-1 cells. Briefly: AsPC-1 CTG Assay (CellTiter-Glo cell viability). To be noted: first value of the cell, read-out: G12D/C/V Cell Proliferation CTG (72 h) AsPC-1. It is filed as cell-based, human. In outline: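 Human pancreatic AsPC-1 or colon SW620 cells in RPMI 1640 with 10% FBS, seeded overnight, then exposed to serially diluted compound for 72 h at 37 °C. CellTiter-Glo luminescence normalized to DMSO control; IC50 from a 4-parameter logistic model.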
(ATP-based viability assays read luminescence as a measure of living cells.)

The mark [5] stands for this setting: read-out: KRAS G12D Coupled Exchange IC50.
[6] abbreviates: read-out: KRAS G12D Binding IC50.
Setting [7] is: Homo sapiens, ASPC1, 2 h, read-out: 2 h p-ERK (AsPC-1 cells), IC50.
Setting [8] is: Homo sapiens, ASPC1, 72 h, AsPC-1, 72 h.

pIC50: −log10 of the molar value. Where a name gives a salt, the structure may show the parent alone. Read-outs that look alike come from different tables or passages of the source.

Sequence of His-tagged KRAS G12D protein (P01116 other isoform, or with tags, fused parts or gaps G12D): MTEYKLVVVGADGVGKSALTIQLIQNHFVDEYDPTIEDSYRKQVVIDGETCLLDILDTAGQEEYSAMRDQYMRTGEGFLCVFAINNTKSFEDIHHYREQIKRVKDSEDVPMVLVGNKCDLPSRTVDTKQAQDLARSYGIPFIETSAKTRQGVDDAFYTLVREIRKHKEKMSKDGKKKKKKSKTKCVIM
Sequence of GDP-bound KRAS protein (aa 1-169), containing both G12D and C118A amino acid substitutions (P01116 other isoform, or with tags, fused parts or gaps G12D/C118A): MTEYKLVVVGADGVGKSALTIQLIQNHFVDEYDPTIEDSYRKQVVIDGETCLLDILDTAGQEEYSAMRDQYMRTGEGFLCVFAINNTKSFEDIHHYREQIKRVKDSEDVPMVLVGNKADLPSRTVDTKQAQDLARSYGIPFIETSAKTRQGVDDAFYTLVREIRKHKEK

On to `CN(C)CC1(COc2nc3c4cnc(c(F)c4n2)-c2c(c(Cl)cc4[nH]ncc24)CCCCOCC2(F)CCCCN3C2)CC1` (stereo in doubt) [Example 401, 1-(1-((((26S)-18-chloro-26,32-difluoro-24-oxa-1,3,5,9,14,15-hexaazahexacyclo[24.4.1.1~6,10~.0~2,7~.0~11,19~.0~12,16~]dotriaconta-2,4,6,8,10(32),11,13,16,18-nonaen-4-yl)oxy)methyl)cyclopropyl)-N,N-dimethylmethanamine], for which the pIC50 was 8.52 in assay [1] (2 hours compound pre-incubation, read-out: KRAS G12D Coupled Exchange); 8.30 in assay [2] (TR-FRET, read-out: KRAS G12D Binding); 6.54 in assay [3] (Homo sapiens, ASPC1, 2 h, read-out: 2 h p-ERK (AsPC-1 cells)); 6.41 in assay [4] (Homo sapiens, ASPC1, 72 h, AsPC-1 cells (G12D), 72 h).
Take `C[C@@]12CCCN(C1)c1nc(OC[C@@]34CCCN3C[C@H](F)C4)nc3c(F)c(ncc13)-c1cccc3ccc(F)c(c13)CC[C@@H](F)C(=O)N2` [Example 2, (15R,18R)-18,22,31-trifluoro-8-(((2R,7aS)-2-fluorotetrahydro-1H-pyrrolo[1,2-a]pyrrol-7a(5H)-yl)methoxy)-15-methyl-3,7,9,11,16-pentaazahexacyclo[19.7.1.1˜2,6˜.1˜11,15˜.0˜5,10˜.0˜25,29˜]hentriaconta-1(28),2(31),3,5,7,9,21,23,25(29),26-decaen-17-one]: the pIC50 in assay [1] (setting [5]) was 7.62; in assay [2] (setting [6]) it was 7.30; in assay [3] (setting [7]) it was 5.85; in assay [4] (setting [8]), 5.39.
In the case of `C[C@@]12CCCN(C1)c1nc(OC[C@@]34CCCN3C[C@H](F)C4)nc3c(F)c(ccc13)-c1cc(O)cc3ccc(F)c(c13)CCCC(=O)N2` [Example 16, (15R)-22,31-Difluoro-8-(((2R,7aS)-2-fluorotetrahydro-1H-pyrrolo[1,2-a]pyrrol-7a(5H)-yl)methoxy)-27-hydroxy-15-methyl-7,9,11,16-tetraazahexacyclo[19.7.1.1˜2,6˜.1˜11,15˜.0˜5,10˜.0˜25,29˜]hentriaconta-1(28),2(31),3,5,7,9,21,23,25(29),26-decaen-17-one bis(2,2,2-trifluoroacetate)], the pIC50 in assay [1] (setting [5]) was 8.30; in assay [2] (setting [6]), 8.22; in assay [3] (setting [7]), 7.04; in assay [4] (setting [8]), 5.92.
Take `COc1c2ncc3c(nc(OC[C@@]45CCCN4C[C@H](F)C5)nc13)N1CCC[C@](C)(C1)NC(=O)CCCc1c(F)ccc3cc(O)cc-2c13` [Example 19, (15R)-22-Fluoro-8-(((2R,7aS)-2-fluorotetrahydro-1H-pyrrolo[1,2-a]pyrrol-7a(5H)-yl)methoxy)-27-hydroxy-31-methoxy-15-methyl-3,7,9,11,16-pentaazahexacyclo[19.7.1.1˜2,6˜.1˜11,15˜.0˜5,10˜.0˜25,29˜]hentriaconta-1(28),2(31),3,5,7,9,21,23,25(29),26-decaen-17-one]: the pIC50 is 8.30 in assay [1] (setting [5]), 8.15 in assay [2] (setting [6]), 5.73 in assay [3] (setting [7]) and 5.30 in assay [4] (setting [8]).
The like results for `Cc1cc2[nH]ncc2c2c1CCCCC(=O)N[C@]1(C)CCCN(C1)c1nc(OC[C@@]34CCCN3C[C@H](F)C4)nc3c(F)c-2ncc13` [Example 20, (17R)-30-Fluoro-24-(((2R,7aS)-2-fluorotetrahydro-1H-pyrrolo[1,2-a]pyrrol-7a(5H)-yl)methoxy)-9,17-dimethyl-5,6,16,21,23,25,29-heptaazahexacyclo[24.3.1.1˜17,21˜.0˜2,10˜.0˜3,7˜.0˜22,27˜]hentriaconta-1(30),2,4,7,9,22,24,26,28-nonaen-15-one bis(2,2,2-trifluoroacetate)] were, in that order, 7.66, 7.70, 6.08 and 5.65.
On to `C[C@@]12CCCN(C1)c1nc(OC[C@@]34CCCN3C[C@H](F)C4)nc3c(F)c(ncc13)-c1cc(O)cc3c1[C@@H](CCCC(=O)N2)CCC3` [Example 27, (15R,21R)-31-Fluoro-8-(((2R,7aS)-2-fluorotetrahydro-1H-pyrrolo[1,2-a]pyrrol-7a(5H)-yl)methoxy)-27-hydroxy-15-methyl-3,7,9,11,16-pentaazahexacyclo[19.7.1.1˜2,6˜.1˜11,15˜.0˜5,10˜.0˜25,29˜]hentriaconta-1(29),2(31),3,5,7,9,25,27-octaen-17-one 2,2,2-trifluoroacetate salt], for which the pIC50 was 8.30 in assay [1] (setting [5]), 8.15 in assay [2] (setting [6]), 6.74 in assay [3] (setting [7]) and 6.18 in assay [4] (setting [8]).
For `Cc1cc2[nH]ncc2c2c1CCCCC(=O)O[C@]1(C)CCCN(C1)c1nc(OC[C@@]34CCCN3C[C@H](F)C4)nc3c(F)c-2ncc13` [Example 32, (17R)-30-fluoro-24-(((2R,7aS)-2-fluorotetrahydro-1H-pyrrolo[1,2-a]pyrrol-7a(5H)-yl)methoxy)-9,17-dimethyl-16-oxa-5,6,21,23,25,29-hexaazahexacyclo[24.3.1.1~17,21~.0~2,10~.0~3,7~.0~22,27~]hentriaconta-1(30),2,4,7,9,22,24,26,28-nonaen-15-one], the pIC50 in assay [1] (setting [5]) is 8.52; in assay [2] (setting [6]), 8.30; in assay [3] (setting [7]) it was 7.37; in assay [4] (setting [8]), 6.37.
`Cc1cc2[nH]ncc2c2c1CCCCC(=O)O[C@]1(CF)CCCN(C1)c1nc(OC[C@@]34CCCN3C[C@H](F)C4)nc3c(F)c-2ncc13` [Example 33, (17R)-30-fluoro-17-(fluoromethyl)-24-(((2R,7aS)-2-fluorotetrahydro-1H-pyrrolo[1,2-a]pyrrol-7a(5H)-yl)methoxy)-9-methyl-16-oxa-5,6,21,23,25,29-hexaazahexacyclo[24.3.1.1~17,21~.0~2,10~.0~3,7~.0~22,27~]hentriaconta-1(30),2,4,7,9,22,24,26,28-nonaen-15-one]: the pIC50 in assay [1] (setting [5]) is 8.40; in assay [2] (setting [6]), 8.22; in assay [3] (setting [7]), 7.11; in assay [4] (setting [8]), 6.09.
Turning to `O=C1CCCCc2c(Cl)cc3[nH]ncc3c2-c2ncc3c(nc(OC[C@@]45CCCN4C[C@H](F)C5)nc3c2F)N2CCC[C@H](C2)O1` [Example 36, (17R)-9-Chloro-30-fluoro-24-(((2R,7aS)-2-fluorotetrahydro-1H-pyrrolo[1,2-a]pyrrol-7a(5H)-yl)methoxy)-16-oxa-5,6,21,23,25,29-hexaazahexacyclo[24.3.1.1˜17,21˜.0˜2,10˜.0˜3,7˜.0˜22,27˜]hentriaconta-1(30),2,4,7,9,22,24,26,28-nonaen-15-one bis(2,2,2-trifluoroacetate)], the pIC50 in assay [1] (setting [5]) is 9.00; in assay [2] (setting [6]), 8.52; in assay [3] (setting [7]), 8.10; in assay [4] (setting [8]) it was 6.95.
As to `Cc1cc2[nH]ncc2c2c1CCCOC(=O)CC1CCCN(C1)c1nc(OC[C@@]34CCCN3C[C@H](F)C4)nc3c(F)c-2ncc13` (some centres unmarked) [Example 39], the pIC50 in assay [1] (setting [5]) is 8.10; in assay [2] (setting [6]) it was 7.92; in assay [3] (2 h, read-out: 2 h p-ERK (AsPC-1 cells), IC50), 7.80; in assay [4] (AsPC-1, 72 h) it was 6.72.
Consider `Cc1cc2[nH]ncc2c2c1CCCOC(=O)C[C@@H]1CCCN(C1)c1nc(OC[C@@]34CCCN3C[C@H](F)C4)nc3c(F)c-2ncc13` [Example 40], for which the pIC50 in assay [1] (setting [5]) is 8.52; in assay [2] (setting [6]), 8.30; in assay [3] (setting [7]), 8.10; in assay [4] (setting [8]), 7.05.
The like results for `O=C1CCCc2c(F)ccc3cc(O)cc(c23)-c2ncc3c(nc(OC[C@@]45CCCN4C[C@H](F)C5)nc3c2F)N2CCC[C@H](C2)O1` [Example 41, (15R)-22,31-Difluoro-8-(((2R,7aS)-2-fluorotetrahydro-1H-pyrrolo[1,2-a]pyrrol-7a(5H)-yl)methoxy)-27-hydroxy-16-oxa-3,7,9,11-tetraazahexacyclo[19.7.1.1˜2,6˜.1˜11,15˜.0˜5,10˜.0˜25,29˜]hentriaconta-1(28),2(31),3,5,7,9,21,23,25(29),26-decaen-17-one 2,2,2-trifluoroacetate salt] were, in that order, 8.70, 8.52, 8.52 and 7.33.
With `O=C1CCCc2c(F)ccc3cc(O)cc(c23)-c2ncc3c(nc(OC[C@@]45CCCN4C[C@H](F)C5)nc3c2F)N2CCC[C@](CF)(C2)O1` [Example 42], the pIC50 in assay [1] (setting [5]) is 8.70; in assay [2] (setting [6]), 8.40; in assay [3] (setting [7]), 7.42; in assay [4] (setting [8]), 6.38.
Turning to `Cc1cc2[nH]ncc2c2c1CCCCC(=O)N[C@@H]1CCCCN(C1)c1nc(OC[C@@]34CCCN3C[C@H](F)C4)nc3c(F)c-2ncc13` [Example 54, (26R)-32-fluoro-4-(((2R,7aS)-2-fluorotetrahydro-1H-pyrrolo[1,2-a]pyrrol-7a(5H)-yl)methoxy)-18-methyl-1,3,5,9,14,15,25-heptaazahexacyclo[24.4.1.1~6,10~.0~2,7~.0~11,19~.0~12,16~]dotriaconta-2,4,6,8,10(32),11,13,16,18-nonaen-24-one], the pIC50 in assay [1] (setting [5]) was 8.52; in assay [2] (setting [6]) it was 8.22; in assay [3] (setting [7]), 6.87; in assay [4] (setting [8]), 5.79.

The values above are taken from patent publication US20240294551A1 (AMGEN INC., priority 2022, published 2024).
